Measurements: patent publication US10118943B2, “Compounds and methods for inhibiting cell death” (Ramot at Tel-Aviv University Ltd., priority 2012, dated 2018)
Entries after “also recorded” stand apart in the source; their conditions may differ.

How the values were obtained:
PC12 cells [1] = conditions: ZnCl2 400 μM, increasing concentrations of peptide
PC12 cells [2] = assay: PC12 cell survival assay, zinc toxicity, MTS (Example 1); conditions: 400 μM zinc, 4 hrs, peptide 10^−9M
Description: PC12 cells (Pheochromocytoma cells) (ATCC, Bethesda, Md., USA) were seeded at 3×10^4 cells/cm^2 on poly-L-Lysine coated plastic tissue culture dishes (Corning, Lowell, Mass., USA) to form an adherent monolayer. Cells were maintained in Dulbecco's modified Eagle's medium (DMEM) supplemented with 10% horse serum (HS), 5% fetal calf serum (FCS), 2 mM glutamine, 100 U/ml penicillin and […] streptomycin (Biological Industries, Beit Haemek, Israel). PC12 differentiation was induced by nerve growth factor (NGF, Sigma) at concentrations of 50 ng/ml by replacing half of the medium every other day until the cells acquired a differentiated morphology. Differentiated cells were defined as bearing two or more neurites with lengths equal to or more than twice the diameter of the cell body (P. Lamoureux et al., The Journal of cell biology 110, 71 (January, 1990)). The cells were incubated in 5% CO2 in a humidified incubator at 37° C. The cells were sub-cultured every 5 days at a 4:1 split ratio by pipetting. The medium was changed every 2 or 3 days after adhesion.
Transfections were performed using Lipofectamine RNAiMAX (Invitrogen). Transfection was carried out according to manufacturer's protocol. For rat MAPRE3 knockdown, PC12 cells or neurons were plated in growth medium without antibiotics at concentration of 10^4 cells/0.32 cm^2 such that they will be 30-50% confluent at the time of transfection. To obtain the highest transfection efficiency and low non-specific effects, siRNA transfection was performed in the following optimized conditions: 50 nM for neurons and 25 nM PC12 of each siRNA construct with 0.2 μl Lipofectamine RNAiMAX (Invitrogen) was added per well of the 96-well plate and scaled up for different 24 or 6-well plates, according to the manufacturer's instructions. The medium was changed one day after transfection. 48 and 72 hours later, cells were harvested to assay for gene knockdown at the RNA and protein levels.
The cells were incubated for 4 hrs at 37° C. 5% CO2. Survival was measured using the MTS assay.
Metabolic activity of cells was measured by the CellTiter 96® Aqueous Non-Radioactive Cell Proliferation kit in accordance with the manufacturer's instructions (Promega). The assay uses a colorimetric method for determining the number of viable cells employing a tetrazolium compound [3-(4,5-dimethylthiazol-2-yl)-5-(3-carboxymethoxyphenyl)-2-(4-sulfophenyl)-2H-tetrazolium, MTS] and an electron-coupling reagent, phenazine methosulfate (PMS). MTS is bio-reduced by cells into a formazan product that is detected at 490 nm. The conversion of MTS into the formazan form is accomplished by dehydrogenase enzymes found in metabolically active cells. Thus, the quantity of formazan product as measured by the amount of 490 nm absorbance is directly proportional to the number of living cells in culture (A. H. Cory, T. C. Owen, J. A. Barltrop, J. G. Cory, Cancer Commun 3, 207 (July, 1991)).

## NAPVSKIPQ (synthetic novel peptide core sequence SKIP derived from hybrid microtubule end-binding protein 3 (EB3)- binding microtubule plus-end tracking proteins (+TIPs) and activity-dependent neurotrophic factor (ADNF) active core site (NAP))
PC12 cells [1]
  protection against zinc-induced cell death: protected by the addition of SKIP, over a wide range of concentrations
PC12 cells [2]
  protection against cell death induced by zinc toxicity (MTS survival): provided protection against zinc toxicity; also recorded: significantly increased survival
PC12 cells [2]; listed as SKIP
  protection against cell death induced by zinc toxicity (MTS survival): significantly increased survival
